Assay results taken from patent US20020193379A1, “Compositions and methods for decreasing the risk of or preventing neural tube disorders in mammals” (Insmed Incorporated, priority 2001, published 2002).
Like-named read-outs stand apart in the source and are kept apart here.

What was measured:
[1] = test system: curly tail fetuses (spina bifida and tail flexion defects); experiment: In utero inositol treatment, oral dosing by gavage, fetuses inspected at E18.5; assay type: in vivo, mouse
Experimental: (§1) Mice—Curly tail mice are maintained as a homozygous, random-bred stock (Van Straaten, H. W. M. & Copp, A. J., Anat. Embryol. 203, 225-237 (2001)) Experimental litters were generated by timed matings, and the day of finding a copulation plug was designated embryonic day (E) 0.5.
In utero inositol treatment (oral dosing)—For oral administration, pregnant mice were gavaged with 0.5 ml inositol solution in PBS at 12 hourly intervals from E8.5 to E10.5 (six doses in total; 800 μg/g body weight/day).
(§2) Pregnant females were killed at E18.5, and the total number of implantations, classified as viable fetuses or resorptions, was recorded. Fetuses were dissected from the uterus and inspected immediately for the presence of open lumbo-sacral spina bifida and tail flexion defects: the primary manifestations of the curly tail genetic defect.

[2] = test system: rat fibroblasts expressing the human insulin receptor; conditions: cited from earlier work
[3] = test system: curly tail fetuses (spina bifida and tail flexion defects); assay type: in vivo, mouse
Experimental: as §1
In utero inositol treatment (subcutaneous administration)—For sub-cutaneous administration, osmotic mini-pumps (capacity 100 μl, delivery rate 1 μl/hour; Model 1003D, Alzet) were filled with solutions of 30, 75 or 150 mg/ml inositol (delivering 29, 72 and 144 μg inositol/g body weight/day respectively for a 25 g mouse), or PBS as a control. Mini-pumps were incubated in sterile PBS at 37° C. for 4 hours and then implanted subcutaneously on the back of pregnant mice at E8.5. General anesthesia was induced by an intra-peritoneal injection of 0.01 ml/g body weight of a solution comprising 10% Hypnovel® (midazolam 5 mg/ml) and 25% Hypnorm® (fentanyl citrate 0.315 mg/ml, fluanisone 10 mg/ml) in sterile distilled water.
as §2

[4] = test system: rats rendered diabetic by streptozotocin; conditions: cited from earlier work
[5] = test system: curly tail embryos (posterior neuropore closure); assay type: cell-based, mouse; conditions: for Effect on posterior neuropore length: vs PBS-treated controls
Experimental: as §1
In vitro inositol treatment—E9.5 embryos (17-19 somite stage) were cultured for 24 hours at 38° C. in whole rat serum. Thirty minutes after the start of culture, myo-inositol (Sigma, UK) or D-chiro-inositol (Insmed, Va., USA) was added to the medium (62.5 μl of inositol stock per ml rat serum) to a final concentration of 5, 10, 20 or 50 μg/ml inositol. Control cultures received an equal volume of phosphate buffered saline (PBS). Following culture, embryos were scored for: (i) posterior neuropore length (the distance from the rostral end of the posterior neuropore to the tip of the tail bud), (ii) crown-rump length and (iii) somite number.

curly-tail mouse embryos = experiment: In vitro culture of curly-tail mouse embryos with inositols at 20 μg/ml for 24 hours; assay type: cell-based
Experimental: In in vitro studies, curly-tail mouse embryos were explanted into culture at 9.5 days after conception, corresponding to the onset of low spinal cord neural tube closure. Inositol additions were made at the start of culture and were maintained throughout the 24 hour culture period. Inositols were maintained at 20 μg/ml. At the end of culture, the embryos were dissected from their extraembryonic membranes, and crown-rump and posterior neuropore lengths were measured as indices of developmental growth, progression and low spinal neural tube closure.

[6] = test system: curly tail mouse fetuses (NTDs characterized by spina bifida); experiment: In vivo treatment of pregnant curly-tail mice by oral gavage, fetuses scored for NTDs; conditions: three days
Experimental: (§3) In in vivo studies, pregnant curly-tail female mice were treated with inositols or PBS (control) by either subcutaneous injection or oral gavage. Using inositols at 75 mg/ml injected by subcutaneous minipump at […], a total daily dosage of 90 mg/kg/day was administered. Inositols were administered from gestational day 8.5 through day 18.5, and fetuses were scored for NTDs on days 12.5 and 18.5. For oral dosing, mice were administered via gavage with 400 mg/kg of inositol twice daily on gestational days 8.5 through 10.5, with fetuses scored for NTDs on day 12.5.

[7] = test system: patients with polycystic ovary syndrome; conditions: cited from earlier work
[8] = test system: curly tail mouse fetuses (NTDs characterized by spina bifida); experiment: In vivo treatment of pregnant curly-tail mice by subcutaneous minipump, fetuses scored for NTDs; conditions: subcutaneous 90 mg/kg/day, four to ten days
Experimental: as §3

NTDs = conditions: folic acid supplementation in early pregnancy; cited from earlier work
[9] = oral 800 μg inositol/g body weight/day
[10] = subcutaneous 29 μg inositol/g body weight/day
[11] = subcutaneous 72 μg inositol/g body weight/day
[12] = subcutaneous 144 μg inositol/g body weight/day
[13] = oral gavage 400 mg/kg twice daily

**Q.** Which “Curly tail, % of total for treatment group” value [1, 9] does the source give for `OC1C(O)C(O)C(O)C(O)C1O` [D-chiro-inositol] here?
**A.** 30.8%

**Q.** And the “Curly tail, number of fetuses” value [1, 9]?
**A.** 12

**Q.** And the No. uterine resorptions [1, 9]?
**A.** 3

**Q.** What about the No. viable fetuses [1, 9] of the same molecule?
**A.** 39

**Q.** And the “Normal, % of total for treatment group” value [1, 9]?
**A.** 66.7%

**Q.** And the “Normal, number of fetuses” value [1, 9]?
**A.** 26

**Q.** And the “Resorptions as % of total number of implantations” value [1, 9]?
**A.** 7.1%

**Q.** What about the “Spina bifida ± curly tail, % of total for treatment group” value (shortened to “Spina bifida ± curly tail, % of total”) [1, 9] of the same molecule?
**A.** 2.6%

**Q.** What about the “Spina bifida ± curly tail, number of fetuses” value [1, 9] of the same molecule?
**A.** 1

**Q.** And the “Mean litter size ± SEM” value ([1]; oral 800 μg inositol/g body weight/day, viable fetuses per litter)?
**A.** 6.50 ± 1.09

**Q.** And the “Reduction in the frequency of spina bifida” value ([1]; oral 800 μg/g body weight/day)?
**A.** 86%

**Q.** What about the “Effect on frequency of spina bifida among offspring” value ([1]; oral 800 μg/g body weight/day, E8.5 to E10.5) of the same molecule?
**A.** marked reduction in the frequency of spina bifida

**Q.** And the “Likelihood of fetuses being normal vs PBS (ordinal multilevel regression)” value ([1]; oral dosing study)?
**A.** more likely to be normal

**Q.** And the “Effect of insulin stimulation on incorporation into phospholipids” value [2]?
**A.** significant increase

**Q.** And the “Likelihood of fetuses being normal vs PBS (ordinal multilevel regression)” value ([3]; subcutaneous)?
**A.** significantly more likely to be normal

**Q.** And the “Curly tail, % of total for treatment group” value [3, 10]?
**A.** 65.4%

**Q.** And the “Curly tail, number of fetuses” value [3, 10]?
**A.** 17

**Q.** And the “Normal, % of total for treatment group” value [3, 10]?
**A.** 23.1%

**Q.** What about the “Normal, number of fetuses” value [3, 10] of the same molecule?
**A.** 6

**Q.** And the “Spina bifida ± curly tail, % of total” value [3, 10]?
**A.** 11.5%

**Q.** And the “Spina bifida ± curly tail, number of fetuses” value [3, 10]?
**A.** 3

**Q.** What about the “Curly tail, % of total for treatment group” value [3, 11] of the same molecule?
**A.** 45.4%

**Q.** And the “Curly tail, number of fetuses” value [3, 11]?
**A.** 39

**Q.** And the “Normal, % of total for treatment group” value [3, 11]?
**A.** 52.3%

**Q.** What about the “Normal, number of fetuses” value [3, 11] of the same molecule?
**A.** 45

**Q.** What about the “Spina bifida ± curly tail, % of total” value [3, 11] of the same molecule?
**A.** 2.3%

**Q.** And the “Spina bifida ± curly tail, number of fetuses” value [3, 11]?
**A.** 2

**Q.** What about the “Curly tail, % of total for treatment group” value [3, 12] of the same molecule?
**A.** 46.5%

**Q.** What about the “Curly tail, number of fetuses” value [3, 12] of the same molecule?
**A.** 46

**Q.** And the “Normal, % of total for treatment group” value [3, 12]?
**A.** 48.5%

**Q.** And the “Normal, number of fetuses” value [3, 12]?
**A.** 48

**Q.** And the “Spina bifida ± curly tail, % of total” value [3, 12]?
**A.** 5.0%

**Q.** What about the “Spina bifida ± curly tail, number of fetuses” value [3, 12] of the same molecule?
**A.** 5

**Q.** And the “Decrease in spina bifida frequency relative to PBS controls” value ([3]; subcutaneous 72 and 144 μg/g body weight/day)?
**A.** 73-83%

**Q.** What about the “Reduction in plasma glucose level compared with exogenous myo-inositol” value [4] of the same molecule?
**A.** much larger reduction in plasma glucose level

**Q.** And the “Crown-rump length compared with PBS-treated controls” value [5]?
**A.** no significant difference

**Q.** And the “Effect on posterior neuropore length” value ([5]; 20 μg/ml)?
**A.** reduced neuropore length

**Q.** What about the “Effect on posterior neuropore length” value ([5]; 50 μg/ml) of the same molecule?
**A.** reduced neuropore length

**Q.** What about the “Effect on posterior neuropore length” value ([5]; 5-10 μg/ml) of the same molecule?
**A.** not different from PBS-treated controls

**Q.** What about the “Mean posterior neuropore length” value (curly-tail mouse embryos; 20 μg/ml, 24 hours, in vitro) of the same molecule?
**A.** 0.095±0.055

**Q.** What about the “Mean posterior neuropore to crown-rump length ratio” value (curly-tail mouse embryos; 20 μg/ml, 24 hours, in vitro) of the same molecule?
**A.** .029±.018

**Q.** And the “Fold decrease in mean posterior neuropore to crown-rump length ratio” value (curly-tail mouse embryos; 20 μg/ml, 24 hours, compared to control or myo-inositol treated)?
**A.** 5.6 fold

**Q.** And the “Fold decrease in mean posterior neuropore length” value (curly-tail mouse embryos; 24 hours of treatment in vitro)?
**A.** 6 fold

**Q.** And the “Number of fetuses showing NTDs characterized by spina bifida” value [6, 13]?
**A.** 1

**Q.** What about the “Percent of treated fetuses showing spina bifida” value [6, 13] of the same molecule?
**A.** 2.3%

**Q.** What about the “Fold decrease in number of fetuses with spina bifida compared to control” value ([6]; oral) of the same molecule?
**A.** 8 fold

**Q.** And the “Fold decrease in number of fetuses with spina bifida compared to myo-inositol” value ([6]; oral)?
**A.** 3 fold

**Q.** What about the “Effect on the action of insulin” value [7] of the same molecule?
**A.** increase the action of insulin

**Q.** What about the “Fold decrease in number of fetuses with spina bifida compared to control” value [8] of the same molecule?
**A.** 9 fold

**Q.** What about the “Fold decrease in number of fetuses with spina bifida compared to myo-inositol” value [8] of the same molecule?
**A.** 4 fold

**Q.** What about the “Number of fetuses showing NTDs characterized by spina bifida” value [8] of the same molecule?
**A.** 1

**Q.** And the “Percent of treated fetuses showing spina bifida” value [8]?
**A.** 1.7%

**Q.** With `Nc1nc2ncc(CNc3ccc(C(=O)N[C@@H](CCC(=O)O)C(=O)O)cc3)nc2c(=O)[nH]1` [folic acid] as the molecule, how does the “NTDs that can be prevented” value (NTDs) read?
**A.** Up to 70%
